In PMC12147761 (Journal of medicinal chemistry, 2025):
Read-outs that look alike come from different tables or passages of the source.

How the values were obtained:
[1] = Pharmacokinetics study in mice; type: in vivo, ICR mice; conditions: for AUC(0-t) / Cmax / Tmax / clearance / half-life / bioavailability: both sexes, ICR, mouse, plasma
CDK7/CycH/MAT1 = molecular target: T1, CDK7/CycH/MAT1 (Homo sapiens, UniProt P50613); assay: CDK family panel, ADP-Glo; type: biochemical
T1 construct: ICE Bioscience Inc. (assay service)
T1 sequence (P50613 whole entry, species assumed): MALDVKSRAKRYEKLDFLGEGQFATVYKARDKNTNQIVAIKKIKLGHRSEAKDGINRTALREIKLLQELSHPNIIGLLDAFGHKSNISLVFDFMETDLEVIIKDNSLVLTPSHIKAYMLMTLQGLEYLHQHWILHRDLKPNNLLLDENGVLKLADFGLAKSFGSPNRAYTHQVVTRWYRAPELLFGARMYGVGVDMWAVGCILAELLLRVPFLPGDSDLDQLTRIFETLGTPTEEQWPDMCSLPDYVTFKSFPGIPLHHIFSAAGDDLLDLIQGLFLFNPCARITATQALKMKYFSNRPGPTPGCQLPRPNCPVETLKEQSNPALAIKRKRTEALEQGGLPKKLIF
T1 sequence (P51946 whole entry partner, species assumed): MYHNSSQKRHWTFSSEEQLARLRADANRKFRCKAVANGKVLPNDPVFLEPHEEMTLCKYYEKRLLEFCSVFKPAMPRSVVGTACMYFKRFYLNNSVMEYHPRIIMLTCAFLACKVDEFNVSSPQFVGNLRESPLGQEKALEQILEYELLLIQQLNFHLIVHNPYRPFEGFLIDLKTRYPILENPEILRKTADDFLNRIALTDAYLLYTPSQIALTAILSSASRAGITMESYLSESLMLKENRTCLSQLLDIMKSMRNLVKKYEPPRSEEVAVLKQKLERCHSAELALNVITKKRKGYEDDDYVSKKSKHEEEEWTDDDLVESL
T1 sequence (P51948 whole entry partner, species assumed): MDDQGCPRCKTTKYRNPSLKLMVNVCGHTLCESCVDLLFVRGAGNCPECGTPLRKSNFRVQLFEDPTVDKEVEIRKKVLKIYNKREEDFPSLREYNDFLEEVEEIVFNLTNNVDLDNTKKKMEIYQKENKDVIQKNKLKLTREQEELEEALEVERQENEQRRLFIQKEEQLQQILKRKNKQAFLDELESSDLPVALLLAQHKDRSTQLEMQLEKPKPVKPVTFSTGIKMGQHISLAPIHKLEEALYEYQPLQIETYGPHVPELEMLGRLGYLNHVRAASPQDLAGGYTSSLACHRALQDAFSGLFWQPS
Description: All the kinase activity were performed using an ADP-Glo kinase assay by ICE Bioscience Inc. (Beijing, China).

[2] = test system: phosphorylation of RNA polymerase II at Ser2; assay: Washout experiment, RNA polymerase II Ser2 phosphorylation (immunoblot); type: cell-based, human; conditions: VCaP cells; YJZ5118 100 nM
Description: The previously reported reversible inhibitor 10 was included for comparison. VCaP cells were treated with the compounds for 6 h, after which the compounds were removed, and the cells were cultured in compound-free media for 5 days.
Generally, after incubation with the compounds for the indicated time, the tested cells were washed by cold PBS buffer (Gibco) and lysed with RIPA buffer (ThermoFisher Scientific) supplemented with cOmplete protease inhibitor cocktail tablets (Sigma-Aldrich). The cell lysate was treated with ultrasonic for 20s, following a centrifugation of 14000 rpm at 4°C for 10 min. The protein concentration was measured by BCA protein assay (DC Protein Assay, BIO-RAD). An equal amount of protein was loaded to 4–12% Bis-Tris gels and underwent SDS-PAGE electrophoresis at 120 V for 90 min. The proteins were transferred to a nitrocellulose (NC) membrane (Thermo Scientific) and the membranes were blocked in 5% milk buffer at room temperature for 1h, followed by incubating with primary antibody at the recommended dilution at 4°C for overnight. The membranes were washed by PBST for three times and incubated with anti-rabbit or anti-mouse HRP-conjugated secondary antibody for 1h at room temperature, after which the membranes were imaged by Odyssey CLx Imager (LiCOR Biosciences).

CDK5/p35NCK = molecular target: T2, CDK5/p35NCK (Homo sapiens, UniProt Q00535); assay: CDK family panel, ADP-Glo; type: biochemical
T2 construct: ICE Bioscience Inc. (assay service)
T2 sequence (Q00535 whole entry, species assumed): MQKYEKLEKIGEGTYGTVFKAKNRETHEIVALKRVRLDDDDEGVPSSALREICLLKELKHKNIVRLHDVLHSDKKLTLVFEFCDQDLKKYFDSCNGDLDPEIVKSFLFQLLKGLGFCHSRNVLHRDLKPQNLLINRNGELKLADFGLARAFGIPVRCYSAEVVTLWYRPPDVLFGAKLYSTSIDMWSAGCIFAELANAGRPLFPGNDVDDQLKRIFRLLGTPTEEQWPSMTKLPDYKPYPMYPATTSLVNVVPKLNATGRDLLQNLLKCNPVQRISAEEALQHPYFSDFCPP
T2 sequence (Q15078 whole entry partner, species assumed): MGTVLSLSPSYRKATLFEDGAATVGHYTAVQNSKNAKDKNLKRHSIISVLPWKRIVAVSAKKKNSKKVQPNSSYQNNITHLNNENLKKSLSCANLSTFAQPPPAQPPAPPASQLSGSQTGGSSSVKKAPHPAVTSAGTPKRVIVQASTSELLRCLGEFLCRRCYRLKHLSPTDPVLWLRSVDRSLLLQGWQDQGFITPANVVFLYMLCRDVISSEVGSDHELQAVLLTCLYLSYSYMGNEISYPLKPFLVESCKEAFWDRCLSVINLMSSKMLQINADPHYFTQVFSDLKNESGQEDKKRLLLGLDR
Description: All the kinase activity were performed using an ADP-Glo kinase assay by ICE Bioscience Inc. (Beijing, China). Kinome selectivity profiles (KINOMEscan profiling) and Kd detection were performed by Eurofins DiscoveryX Corporation (San Diego, CA, USA).

[3] = intravenous, i.v. 2.5 mg/kg (Table S5, intraperitoneal study)

With C=CC(=O)Nc1cc(N(C(=O)NCc2ccccc2)[C@H]2CC[C@H](Nc3ccc(C#N)cn3)CC2)ccc1N1CCC(N(C)C)CC1 [YJZ5118, N-(5-(3-benzyl-1-((1r,4r)-4-((5-cyanopyridin-2-yl)amino)cyclohexyl)ureido)-2-(4-(dimethylamino)piperidin-1-yl)phenyl)acrylamide] the AUC(0-t) [1, 3] was 1660 ng·h/mL, the Cmax [1, 3] was 3310 ng/mL and the Tmax [1, 3] was 0.08 h. The clearance [1, 3] was 25.6 mL/min/kg, the half-life [1, 3] was 1.21 h and the bioavailability ([1]; ip, 2.5 mg/kg, i.p. 2.5 mg/kg, read-out: F) was 113%. The AUC(0-t) ([1]; ip, i.p. 2.5 mg/kg) was 1860 ng·h/mL, the Cmax ([1]; ip, i.p. 2.5 mg/kg) was 1580 ng/mL and the Tmax ([1]; ip, i.p. 2.5 mg/kg) was 0.33 h. The half-life ([1]; ip, i.p. 2.5 mg/kg) was 1.46 h, the clearance ([1]; iv, i.v. 2 mg/kg) was 28.3 mL/min/kg and the AUC(0-t) ([1]; iv, i.v. 2.5 mg/kg (Figure 3A)) was 1580 ng·h/mL. For the same compound, the Cmax ([1]; iv, i.v. 2.5 mg/kg (Figure 3A)) was 2810 ng/mL, the Tmax ([1]; iv, i.v. 2.5 mg/kg (Figure 3A)) was 0.08 h and the clearance ([1]; iv, i.v. 2.5 mg/kg (Figure 3A)) was 28.3 mL/min/kg. It also gave a half-life ([1]; iv, i.v. 2.5 mg/kg (Figure 3A)) of 1.29 h, a bioavailability ([1]; po, 10 mg/kg, p.o. 10 mg/kg, read-out: F (oral bioavailability)) of 35.5% and an AUC(0-t) ([1]; po, p.o. 10 mg/kg) of 2240 ng·h/mL. For the same compound, the Cmax ([1]; po, p.o. 10 mg/kg) was 639 ng/mL, the Tmax ([1]; po, p.o. 10 mg/kg) was 1.5 h and the half-life ([1]; po, p.o. 10 mg/kg) was 2.32 h. The “clearance rate, times lower than that of 14h” value ([1]; i.v.) was 4 time, the “F (oral bioavailability)” value ([1]; p.o. 10 mg/kg, 10 mg/kg) was 35.5% and the IC50 (CDK7/CycH/MAT1) was 2260 nM. For the same compound, the “RNA polymerase II Ser2 phosphorylation after washout” value [2] was “complete loss of phosphorylation observed at 15 h after washout” and the IC50 (CDK5/p35NCK) was over 10000 nM.
